Measured values: PMC10361207, “Cannabinoid and Opioid Receptor Affinity and Modulation of Cancer-Related Signaling Pathways of Machaeriols and Machaeridiols from Machaerium Pers” (Molecules, 2023)
Read-outs that look alike come from different tables or passages of the source.

What was measured:
Stat3 [1] = experiment: Luciferase reporter assay, Stat3, HeLa; format: cell-based, human; conditions: Homo sapiens; HeLa cells; inducer IL6; dash: not inhibited by more than 40% at 50 µmol/L
Protocol: (§1) Hela cells (or T98G cells) from ATCC were plated in white opaque 384-well plates at a density of 4300 cells/well in 30 µL of growth medium (DMEM with 10% FBS and 1% Pen/Strep). The next day, the medium was aspirated and replaced with DMEM containing 1% FBS. The cells were transfected with respective plasmids using X-tremeGENE HP DNA transfection reagent (Roche). After 24 h of transfection, the test agents were added to the transfected cells, followed 30 min later by an inducing agent: interleukin 6 (IL-6) for Stat3, TGF-β for Smad, m-wnt3a for Wnt and PMA for AP-1, NF-κB, E2F, Myc, ETS, Notch and Hedgehog. No inducer was added for FoXO and pTK. After 4 h or 6 h of induction, the cells were lysed via the addition of the One-Glo luciferase assay system (Promega; Madison, WI). The light output was detected in a GloMax®-Multi+ Detection System with Instinct® Software (Promega E 8051). This luciferase assay determines if the test agent is able to inhibit the activation of cancer-related signaling pathways. In the case of FoxO, the enhanced luciferase activity via the test agent was assessed.

Smad2/3 [2] = experiment: Luciferase reporter assay, Smad2/3, HeLa; format: cell-based, human; conditions: Homo sapiens; HeLa cells; inducer TGF-beta; dash: not inhibited by more than 40% at 50 µmol/L
Protocol: as §1

AP-1 [3] = experiment: Luciferase reporter assay, AP-1, HeLa; format: cell-based, human
Protocol: as §1

NF-κB [4] = experiment: Luciferase reporter assay, NF-κB, HeLa; format: cell-based; conditions: Homo sapiens; HeLa cells; inducer PMA; dash: not inhibited by more than 40% at 50 µmol/L
Protocol: as §1

E2F [5] = experiment: Luciferase reporter assay, E2F, HeLa; format: cell-based, human
Protocol: as §1

Myc [6] = experiment: Luciferase reporter assay, Myc, HeLa; format: cell-based; conditions: Homo sapiens; HeLa cells; inducer PMA; dash: not inhibited by more than 40% at 50 µmol/L
Protocol: as §1

ETS [7] = experiment: Luciferase reporter assay, ETS, HeLa; format: cell-based, human; conditions: Homo sapiens; HeLa cells; inducer PMA; dash: not inhibited by more than 40% at 50 µmol/L
Protocol: as §1

Notch [8] = experiment: Luciferase reporter assay, Notch, HeLa; format: cell-based; conditions: Homo sapiens; HeLa cells; inducer PMA; dash: not inhibited by more than 40% at 50 µmol/L
Protocol: as §1

FoxO = experiment: Luciferase reporter assay, FoxO, HeLa; format: cell-based; conditions: Homo sapiens; HeLa cells; no inducer; dash: no activity detected; read-out: IC50, FoxO (None)
Protocol: as §1

Wnt [9] = experiment: Luciferase reporter assay, Wnt, HeLa; format: cell-based; conditions: Homo sapiens; HeLa cells; inducer m-wnt3a; dash: not inhibited by more than 40% at 50 µmol/L
Protocol: as §1

Hedgehog [10] = experiment: Luciferase reporter assay, Hedgehog, HeLa; format: cell-based, human; conditions: Homo sapiens; HeLa cells; inducer PMA; dash: not inhibited by more than 40% at 50 µmol/L
Protocol: as §1

[11] = tested on: panel of transcription factors (cancer-related signaling pathways); experiment: Luciferase reporter panel, summary over pathways, HeLa; format: cell-based; conditions: Homo sapiens; HeLa cells; read-out: IC50, span over signaling pathways
Protocol: as §1

Stat3 [12] = tested on: Stat3; set-up: method as in PMID 36235141; conditions: T98G glioblastoma multiforme cells; inducer IL6; cited from earlier work
Smad2/3 [13] = tested on: Smad2/3; set-up: method as in PMID 36235141; conditions: T98G glioblastoma multiforme cells; inducer TGF-beta; cited from earlier work
AP-1 [14] = tested on: AP-1; set-up: method as in PMID 36235141; conditions: T98G glioblastoma multiforme cells; inducer PMA; cited from earlier work
NF-κB [15] = tested on: NF-κB; set-up: method as in PMID 36235141; conditions: T98G glioblastoma multiforme cells; inducer PMA; cited from earlier work
E2F [16] = tested on: E2F; set-up: method as in PMID 36235141; conditions: T98G glioblastoma multiforme cells; inducer PMA; cited from earlier work
Myc [17] = tested on: Myc; set-up: method as in PMID 36235141; conditions: T98G glioblastoma multiforme cells; inducer PMA; cited from earlier work
ETS [18] = tested on: ETS; set-up: method as in PMID 36235141; conditions: T98G glioblastoma multiforme cells; inducer PMA; cited from earlier work
Notch [19] = tested on: Notch; set-up: method as in PMID 36235141; conditions: T98G glioblastoma multiforme cells; inducer PMA; cited from earlier work
Wnt [20] = tested on: Wnt; set-up: method as in PMID 36235141; conditions: T98G glioblastoma multiforme cells; inducer m-wnt3a; cited from earlier work
Hedgehog [21] = tested on: Hedgehog; set-up: method as in PMID 36235141; conditions: T98G glioblastoma multiforme cells; inducer PMA; cited from earlier work
[22] = HeLa cells, inducer PMA, dash: not inhibited by more than 40% at 50 µmol/L

| SMILES | IC50 (Stat3 [12]) | IC50 (Smad2/3 [13]) | IC50 (AP-1 [14]) | IC50 (NF-κB [15]) | IC50 (E2F [16]) | IC50 (Myc [17]) | IC50 (ETS [18]) | IC50 (Notch [19]) | IC50 (Wnt [20]) | IC50 (Hedgehog [21]) | other results |
| --- | --- | --- | --- | --- | --- | --- | --- | --- | --- | --- | --- |
| C=C(C)[C@@H]1CCC(C)=C[C@H]1c1c(O)cc(CCCCC)cc1O [compound 9, cannabidiol, reference compound] | – | – | – | – | – | – | – | – | – | – | IC50 (Stat3 [1]): 5.9 µM; IC50 (Smad2/3 [2]): 4.1 µM; IC50, Ap-1 (PMA) (AP-1 [3]; [22]): inactive; IC50 (AP-1 [3]; Homo sapiens, read-out: IC50, Ap-1 (PMA)): > 50 µM; IC50 (NF-κB [4]): 3 µM; IC50, E2F (PMA) (E2F [5]; [22]): inactive; IC50 (E2F [5]; Homo sapiens, HeLa, read-out: IC50, E2F (PMA)): > 50 µM; IC50 (Myc [6]): 3.8 µM; IC50 (ETS [7]): 5.5 µM; IC50 (Notch [8]): 4.8 µM; IC50 (FoxO): > 50 µM; IC50 (Wnt [9]): 5.7 µM; IC50 (Hedgehog [10]): 6.1 µM; IC50 [11]: 3 to 6.1 µM |
| C=C(C)[C@H]1CCC(C)=C[C@@H]1c1c(O)cc(O)cc1/C=C/c1ccccc1 [compound 12] | 4.9 µM | 3.5 µM | 10.2 µM | 7.7 µM | 4.5 µM | 5.7 µM | 7.3 µM | < 5 µM | 12.1 µM | 7 µM | – |
| CC(C)=CCC/C(C)=C/Cc1c(O)cc(O)cc1/C=C/c1ccccc1 [compound 13] | 4.3 µM | 2.2 µM | 4.4 µM | 4.8 µM | 4.4 µM | 1.9 µM | 4.7 µM | 2.1 µM | 9.1 µM | 8.3 µM | – |
